System: CD46 expression
Assay: CD46 expression by RNA-sequencing in unpaired pre-treatment and post-treatment tumor biopsies
Type: in vivo, human
Settings: for CD46 expression Post: post-treatment biopsies
[1] = Breast Cancer, Post minus Pre, unpaired biopsies, log2-transformed counts
[2] = Breast Cancer, post- vs pre-treatment unpaired biopsies
[3] = Breast Cancer, unpaired, RNA-seq log2-transformed normalized counts
[4] = Non-Small Cell Lung Cancer, Post minus Pre, unpaired biopsies, log2-transformed counts
[5] = Non-Small Cell Lung Cancer, post- vs pre-treatment unpaired biopsies
[6] = Non-Small Cell Lung Cancer, unpaired, RNA-seq log2-transformed normalized counts

## CC(C)(C)c1nc(-c2cccc(NS(=O)(=O)c3c(F)cccc3F)c2F)c(-c2ccnc(N)n2)s1 [dabrafenib]
Melanoma, Post minus Pre, unpaired biopsies, log2-transformed counts
  CD46 expression diff: 0.11
Melanoma, post- vs pre-treatment unpaired biopsies
  CD46 expression Percentage change: 2.0%
Melanoma, unpaired, RNA-seq log2-transformed normalized counts
  CD46 expression Post: 5.42

## CS(=O)(=O)CCNCc1ccc(-c2ccc3ncnc(Nc4ccc(OCc5cccc(F)c5)c(Cl)c4)c3c2)o1 [lapatinib]
[1]
  CD46 expression diff: −0.08
[2]
  CD46 expression Percentage change: −1.2%
[3]
  CD46 expression Post: 6.22

## CN(Cc1cnc2nc(N)nc(N)c2n1)c1ccc(C(=O)N[C@@H](CCC(=O)O)C(=O)O)cc1 [methotrexate]
Bladder Cancer, post minus pre, unpaired biopsies
  CD46 expression diff: −0.25
Bladder Cancer, post vs pre, unpaired biopsies
  CD46 expression Percentage change: −4.0%
Bladder Cancer, log2-transformed RNA-seq counts
  CD46 expression Post: 5.88
[1]
  CD46 expression diff: 0.07
[2]
  CD46 expression Percentage change: 1.2%
[3]
  CD46 expression Post: 6.32

## denosumab
[1]
  CD46 expression diff: 0.40
[2]
  CD46 expression Percentage change: 6.2%
[3]
  CD46 expression Post: 6.82

## CO[C@H]1C[C@@H]2CC[C@@H](C)[C@@](O)(O2)C(=O)C(=O)N2CCCC[C@H]2C(=O)O[C@H]([C@H](C)C[C@@H]2CC[C@@H](OCCO)[C@H](OC)C2)CC(=O)[C@H](C)/C=C(\C)[C@@H](O)[C@@H](OC)C(=O)[C@H](C)C[C@H](C)/C=C/C=C/C=C/1C [everolimus]
[1]
  CD46 expression diff: 0.09
[2]
  CD46 expression Percentage change: 1.4%
[3]
  CD46 expression Post: 6.46

## ramucirumab
Non-Small Cell Lung Cancer, post minus pre, unpaired biopsies
  CD46 expression diff: −0.17
Non-Small Cell Lung Cancer, post vs pre, unpaired biopsies
  CD46 expression Percentage change: −2.8%
Non-Small Cell Lung Cancer, log2-transformed RNA-seq counts
  CD46 expression Post: 6.13
Non-Small Cell Lung Cancer, pre-treatment biopsies, log2-transformed RNA-seq counts
  CD46 expression Pre: 6.30

## O=P(O)(O)C(O)(Cn1ccnc1)P(=O)(O)O [zoledronic acid]
[1]
  CD46 expression diff: 0.41
[2]
  CD46 expression Percentage change: 6.4%
[3]
  CD46 expression Post: 6.78

## COc1cc([C@@H]2c3cc4c(cc3[C@@H](O[C@@H]3O[C@@H]5CO[C@@H](C)O[C@H]5[C@H](O)[C@H]3O)[C@H]3COC(=O)[C@H]23)OCO4)cc(OC)c1O [etoposide]
Endocrine Tumor, Post minus Pre, unpaired biopsies, log2-transformed counts
  CD46 expression diff: 0.11
Endocrine Tumor, post- vs pre-treatment unpaired biopsies
  CD46 expression Percentage change: 2.0%
Endocrine Tumor, unpaired, RNA-seq log2-transformed normalized counts
  CD46 expression Post: 5.79
[4]
  CD46 expression diff: 0.10
[5]
  CD46 expression Percentage change: 1.7%
[6]
  CD46 expression Post: 5.98
Sarcoma, Post minus Pre, unpaired biopsies, log2-transformed counts
  CD46 expression diff: 0.30
Sarcoma, post- vs pre-treatment unpaired biopsies
  CD46 expression Percentage change: 6.2%
Sarcoma, unpaired, RNA-seq log2-transformed normalized counts
  CD46 expression Post: 5.13

## C#Cc1cccc(Nc2ncnc3cc(OCCOC)c(OCCOC)cc23)c1 [erlotinib]
[4]
  CD46 expression diff: −0.04
[5]
  CD46 expression Percentage change: −0.6%
[6]
  CD46 expression Post: 6.23

From patent US20240058464A1 (Fortis Therapeutics, Inc., priority 2021, published 2024)
